Laboratory results: patent US7838464B2, “Method for yield improvement in glyphosate-resistent legumes” (priority 2002, dated 2010)

Test system: soya variety NIDERA AX 4910
Assay: Field experiments: yield of glyphosate-resistant soya after foliar treatment
Type: in vivo
Procedure: The results shown hereinbelow were obtained in experiments in the, open which were carried out during the […] season in the Argentinian northern pampas. The plots used were arranged randomly relative to one another. Each treatment variant was replicated-four times. The crop plant used was the soya variety NIDERA AX 4910, which is resistant to numerous fungal diseases and to the herbicide glyphosate.
In all 5 experiments, two foliar treatments with glyphosate were carried out 30 or 60 days after planting the soya seeds, using equipment conventionally used under practice conditions. In the experiments 2 and 3, pyraclostrobin was added at “30 days after planting”, while pyraclostrobin was added at “60 days after planting” in the experiments 4 and 5.

| Molecule | yield in comparison with the conventional use of glyphosate alone (addition of pyraclostrobin 50 or 100 g a.s./ha to glyphosate at early (30 days) and late (60 days) treatment times) | Yield (experiment 1: glyphosate 360 g a.s./ha at 30 and at 60 days after planting, no pyraclostrobin, open field, 4 replicates) [%] |
| --- | --- | --- |
| pyraclostrobin | markedly increased the yield |  |
| O=C(O)CNCP(=O)(O)O [glyphosate, N-(phosphonomethyl)glycine] |  | 100 |
